Results reported in patent publication US20070099891A1, “Medicinal compositions and combinations” (priority 2003, published 2007).

Legend:
LDL receptor protein = assay: Expression of LDL receptor protein in liver of endogenous hyperlipemia rabbit (immunoblotting); assay type: in vivo; settings: casein diet
Description: For the rabbit used in Example 2, liver was taken out after one day of a final administration of the agent. A homogenizing buffer (20 mM Tris-HCl (pH 8.0), 1 mM CaCl2, 150 mM NaCl, a mix of protease inhibitor) was added to a part of this liver and the mixture was homogenized and centrifuged at 8000×g, 4° C. for 10 min., thereafter the supernatant was ultracentrifuged at […], 4° C. for 60 min. The resulting precipitate was washed by adding the homogenizing buffer and centrifuging at 10,000×g, 4° C. for 30 min., and thereafter was suspended in a suspension buffer (125 mM Tris-maleate (pH 6.8), 1 mM CaCl2, 160 mM NaCl, 1% (w/v) Triton X-100, Protease inhibitor (Complete™, Boehringer Ingelhaim Co., Ltd., Ingelheim, Germany)) to prepare a fraction of the liver membrane. After mixing with a buffer (125 mM Tris-HCl (pH 6.8), 20% (v/v) glycerol, 4% (w/v) sodium dodecyl sulfate (hereinafter, referred to as SDS) and 0.001% (w/v) bromophenol blue), the fraction was subjected to SDS polyacrylamide electrophoresis (using a 7.5% polyacrylamide gel), and the resultant was transferred to a polyvinylidene difluoride (PVDF) membrane and then the amount of LDL receptor protein was evaluated by an immunoblotting using anti-LDL receptor antibody. […]

HepG2 cell = assay: LDL binding, uptake and degradation activity in cultured human hepatic cell line HepG2 ([125I]LDL); assay type: cell-based; settings: for Binding Amounts / Degradation Amounts / Uptake Amounts: mean ± standard error, 6 experiments
Description: The cultured human hepatic cell line HepG2 cell was purchased from the Dainippon Pharmaceuticals Co. Ltd. (Osaka, Japan). The determinations of LDL binding, uptake and degradation activity were performed according to a prior report (Method in Enzymology, 98, 241-255, 1983). Cells were seeded in a 24 well plate and were incubated in the Dulbecco's modified Eagle/F-12 (DMEM/F-12) medium containing 10% fetal bovine serum and antibiotics at 37° C. for two days. After washing the cells, a DMEM/F-12 medium containing 10% lipoprotein-removed serum, the test substrate and the antibiotics was added and the cells were incubated at 37° C. for 19 hours. After adding [^125I]LDL, the cells were incubated at 37° C. for another 5 hours. The culture supernatant was collected and trichloroacetic acid was added thereto, and then it was statically kept for 30 minutes or more at 4° C. After centrifuging (700×g, 4° C., 15 min.), the supernatant was separated and sodium iodide was added thereto, and further hydrogen peroxide was added. After treating the mixture at room temperature for 5 min., chloroform was added and the mixture was stirred. After centrifuging (700×g, 4° C., 5 min.), the radioactivity in the supernatant was measured by a gamma counter, and then the data thus obtained was evaluated as an amount of degradation of LDL. Separately, after washing the cells thoroughly, a dissociation buffer (50 mM NaCl, 10 mM 2-[4-(2-hydroxyethyl)-1-piperadinyl]ethane sulfonic acid (HEPES, pH 7.4), 10 mg/mL heparin) was added and then the cells were statically kept at 4° C. for 60 min. or more. […] Furthermore, 1N sodium hydroxide was added to the remaining cells and the mixture was reacted for more than 10 min. to dissolve the cells. […] On the other hand, the amounts of non-specific degradation, binding and uptake were evaluated by coexisting an excess of non-labeled LDL on addition of [^125I] LDL, while the amounts of specific degradation, binding and uptake were obtained by subtracting the amounts of non-specific degradation, binding and uptake from the total amounts of degradation, binding and uptake and further calibrating with the amounts of protein.

[1] = system: rabbit with endogenous hyperlipemia caused by a casein diet load; assay: Blood cholesterol lowering action in endogenous hyperlipemia rabbit (casein diet); assay type: in vivo, New Zealand White rabbit
Description: 8 weeks old male New Zealand White rabbit were bred for 12 days with ad libitum water and feeding conditions (rabbit·guinea pig breeding feed RC4, Oriental Yeast Co., Ltd., Tokyo, Japan). Thereafter, the diet was replaced with the casein diet containing 27% casein (Oriental Yeast Co., Ltd., Tokyo, Japan), and then the restricted feeding to the 100 g per 3 kg weight was performed for one week. At this point, the blood was collected via auricular veins and the plasma total cholesterol amounts was measured and then these rabbits were divided such that the mean of the weight and the plasma total cholesterol were equal approximately. […] Each agent was dissolved in propylene glycol containing 0.5% polyoxyethylenesorbitan monooleate (Tween 80) and then these were administered orally. On the other hand, for control group, the solvent (propylene glycol comprising 0.5% Tween 80) was administered orally. At one day after final administration, the blood was collected and plasma total cholesterol was measured and also the lipoprotein was fractioned according to the differential ultracentrifugation method (Nobuhiro, Yamada, Yasushi Sato edit.: Study strategy of Arteriosclerotic+Hyperlipemia, 63-69, 1996, Shujunsha Co. Ltd.), and then the amounts of cholesterol in the fraction of LDL were measured. The amount of total cholesterol in plasma and the amount of cholesterol in LDL fraction were determined by using an automatic biochemical analyzer (Biochemical Analyzer CHEM 1, Bayer Corporation, NY, USA).

[2] = single agent; not reduced more even if the dosage is increased; cited from earlier work
[3] = 1 mg/kg orally for 3 weeks, mean ± standard error

| Compound | amount of the expression of LDL receptor protein in liver (in words, FIG. 1) (LDL receptor protein; atorvastatin 1 and 3 mg/kg) | Binding Amounts (HepG2 cell; single agent 0.1 μM) [ng/mg protein] | Degradation Amounts (HepG2 cell; single agent 0.1 μM) [ng/mg protein] | Binding Amounts (HepG2 cell; single agent 1 μM) [ng/mg protein] | Degradation Amounts (HepG2 cell; single agent 1 μM) [ng/mg protein] | Binding Amounts (HepG2 cell; single agent 10 μM) [ng/mg protein] | Degradation Amounts (HepG2 cell; single agent 10 μM) [ng/mg protein] | amount of the expression of LDL receptor protein in liver (in words, FIG. 1) (LDL receptor protein; compound A 1 mg/kg) | amounts of binding, uptake and degradation of LDL (in words) (HepG2 cell; compound A 0.01 to 1 μM) | Binding Amounts (HepG2 cell; single agent 0.01 μM) [ng/mg protein] | Degradation Amounts (HepG2 cell; single agent 0.01 μM) [ng/mg protein] | Uptake Amounts (HepG2 cell; single agent 0.01 μM) [ng/mg protein] | Uptake Amounts (HepG2 cell; single agent 0.1 μM) [ng/mg protein] | Uptake Amounts (HepG2 cell; single agent 1 μM) [ng/mg protein] | plasma LDL cholesterol [1, 3] [mg/dL] | plasma total cholesterol [1, 3] [mg/dL] | plasma total cholesterol lowering action and plasma LDL cholesterol lowering action (in words) ([1]; 1 mg/kg, compared to control) | degree of lowering of LDL cholesterol [2] [%] |
| --- | --- | --- | --- | --- | --- | --- | --- | --- | --- | --- | --- | --- | --- | --- | --- | --- | --- | --- |
| CC(C)c1c(C(=O)Nc2ccccc2)c(-c2ccccc2)c(-c2ccc(F)cc2)n1CC[C@@H](O)C[C@@H](O)CC(=O)O [Atorvastatin, atorvastatin, reference compound] | increased | 81.7 ± 2.1 | 800.9 ± 32.5 | 86.3 ± 2.7 | 1000.5 ± 62.9 | 95.5 ± 4.0 | 1062.3 ± 66.0 |  |  |  |  |  |  |  |  |  |  |  |
| CCCCn1c(=O)c(NC(=O)Nc2c(C(C)C)cc(N)cc2C(C)C)c(-c2cccc(OCCCO)c2)c2cccnc21 [Compd. A, N-[1-butyl-4-[3-[3-(hydroxy)propoxy]phenyl]-1,2-dihydro-2-oxo-1,8-naphthyridine-3-yl]-N′-(2,6-diisopropyl-4-aminophenyl)urea] |  | 90.9 ± 4.1 | 1016.8 ± 45.3 | 93.7 ± 2.5 | 1126.3 ± 70.3 |  |  | increased | increased | 85.2 ± 3.6 | 927.5 ± 90.0 | 852.9 ± 47.3 | 886.4 ± 29.2 | 1172.2 ± 46.2 | 52 ± 9 | 108 ± 5 | significant effects |  |
| O=C1[C@H](CC[C@H](O)c2ccc(F)cc2)[C@@H](c2ccc(O)cc2)N1c1ccc(F)cc1 [ezetimibe, 1-(4-fluorophenyl)-3(R)-[3-(4-fluorophenyl)-3(S)-hydroxypropyl]-4(S)-(4-hydroxyphenyl)-2-azetidinone] |  |  |  |  |  |  |  |  |  |  |  |  |  |  |  |  |  | 15 to 20 |
